Assays:
Assay type in all cases: in vivo
[1] = tested on: Ctenocephalides felis; experiment: Example 1: efficacy of isoxazoline liquid formulation given by mouth to cats against fleas; details: 1.125 mg/kg by mouth daily on days 0-29, liquid formulation, fed
From the text: Methods: A pool of 14 cats are to be preliminarily infested with ˜100 unfed adult C. felis in order to identify cats that can suitably sustain a reliable infestation rate, defined as approximately 50% fleas being live at the end of a 48-hour period. The 12 cats with the highest live flea counts are to be selected for inclusion in the study. The cats are to be randomized and divided into a control group and a treatment group with 6 cats per group.
The cats are to be housed individually during the study period and are to be fed a commercial dry cat food ration with ad libitum access to water.
(§1) Each cat in the isoxazoline treatment group is to receive by mouth a liquid formulation of isoxazoline. The dosage of 1.125 mg/kg of isoxazoline is to be administered to the cats on each of days 0-29.
Cats in the control group are not to receive isoxazoline or any other flea control treatment. Each cat in the treatment group is to be offered its daily ration (dry food) and the individual doses of liquid formulation are to be administered after the individual cat has eaten at least 25% of its total daily ration. After receiving the dose of isoxazoline, the cats are to be allowed to continue eating. This mimics incorporating the isoxazoline in feed. Each cat in the treatment group and the control group is to be experimentally infested with 100 unfed adult fleas on test days −1, 5, 12, 20 and 35. […]

[2] = Example 1: average plasma concentration of isoxazoline in cats, daily oral liquid dosing; details: 1.125 mg/kg daily oral
Protocol: as §1
Using the same study method as described above, blood is to be drawn at 72, 168, 336, 504, 720 and 888 hours after the initial dose of isoxazoline is administered. The average concentration of isoxazoline in the blood can then be determined.

[3] = Example 5: plasma levels of isoxazoline in cats given two medicated feed formulations; details: 1 mg/kg daily, days 0-14
Protocol: Methods: A pool of cats are to be randomly assigned to a single control group and 2 treatment groups with 6 cats per group.
(§2) The cats are to be housed individually during the study period and are to have ad libitum access to water.
Each cat in a treatment group (test groups 2 and 3) is to receive one of two medicated daily feeds from study days 0-14. The medicated daily feed is to be offered to the cats for 1 hour on each of days 0-14 according to TABLE 3.
Blood is to be drawn at day 0 (day of the first administration of medicated feed) and days 2, 4, 7, 10, 14, 21 and 30 after the initial dose of isoxazoline is administered. The average concentration of isoxazoline in the blood for each of the medicated feed formulations (treatment groups 2 and 3) can then be determined.

[4] = tested on: Ctenocephalides felis; experiment: Example 6: efficacy of Mivorilaner in medicated feed in cats against fleas
From the text: FIG. 1. A graph of the arithmetic mean efficacy for treatment Group 2 (vertical hash) and Group 3 (horizontal hash). Percent efficacy=[AM fleas CONTROL−AM fleas TREATED]/AM fleas CONTROL Efficacy measured at 2, 9, 16, 30, and 37 days after Initial Treatment.
Methods: A pool of cats are to be preliminarily infested with ˜100 unfed adult C. felis fleas in order to produce cats that can suitably sustain a reliable infestation rate, defined as approximately 50% retention of live fleas at the end of a 48-hour period. The cats with the highest live flea counts are to be randomly assigned to a single control group (Group 1) and 2 medicated feed treatment groups (Groups 2 and 3) with 4 cats per group. The cats in groups 2 and 3 will receive Mivorilaner.
as §2
Each cat in a treatment group (Groups 2 and 3) is to receive a medicated daily feed from study days 0-29 according to TABLE 4.
The cats are to be fasted overnight prior to each daily treatment. The daily dose of Mivorilaner is to be mixed into a small portion (approximately 25% of the cat's daily dietary needs) of wet canned cat food. Approximately 4 hours after the medicated feed has been initially offered, the remaining medicated feed, if any, will be mixed with the 75% unmedicated daily feed for each cat. […]

Q: For `O=C(CNC(=O)c1sc(C2=NO[C@@](c3cc(Cl)c(F)c(Cl)c3)(C(F)(F)F)C2)c2c1CCC2)NCC(F)F` [mivorilaner, 3-[(5S)-5-(3,5-dichloro-4-fluorophenyl)-5-(trifluoromethyl)-4,5-dihydroisoxazol-3-yl]-N-[2-[(2,2-difluoroethyl)amino]-2-oxoethyl]-5,6-dihydro-4H-cyclopenta[c]thiophene-1-carboxamide], which “reduction in live flea counts over the control group” value [1] is on record?
A: at least 95%

Q: What about the average plasma concentration ([2]; at 72 hours) of the same compound?
A: about 1011 ng/mL

Q: And the average plasma concentration ([2]; at 504 hours)?
A: about 4088 ng/mL

Q: And the average plasma concentration ([2]; at 888 hours, approximately 8 days after the final dose)?
A: about 3025 ng/mL

Q: What about the plasma concentrations [3] of the same compound?
A: consistent between treatment groups 2 and 3

Q: And the “Percent efficacy (reduction in live and moribund flea counts)” value ([4]; Group 2, 0.75 mg/kg daily in wet canned cat food days 0-29, by day 9)?
A: 100%

Q: And the “Percent efficacy (reduction in live and moribund flea counts)” value ([4]; Group 3, 1.5 mg/kg daily in wet canned cat food days 0-29, by day 9)?
A: 100%

Reference: US20240156789A1, “ORAL FELINE FEED AND METHODS FOR CONTROLLING FLEA INFESTATIONS IN A FELINE” (priority 2021, published 2024)
